Experimental data reported in patent US9896435B2, “N-pyrrolidinyl,N′-pyrazolyl-urea, thiourea, guanidine and cyanoguanidine compounds as TrkA kinase inhibitors” (Array BioPharma Inc., priority 2012, dated 2018).

How the values were obtained:
Experiment in all cases: KinaseProfiler off-target kinase profiling
Type in all cases: biochemical
Details in all cases: 10 μM, ATP near Km
ROCK-I = ROCK-I (Homo sapiens (Human), UniProt Q13464)
Outline: (§1)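 Duplicate measurements were taken for compound at 10 μM with ATP near each kinase's Km. Values represent mean percent of control.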

CLK2 = CLK2 (Homo sapiens (Human), UniProt P49760)
Outline: as §1

MST3 = MST3 (Homo sapiens (Human), UniProt Q9Y6E0)
Outline: as §1

IR Activated = IR Activated (Homo sapiens (Human), UniProt P06213)
Outline: as §1

VRK2 = VRK2 (Homo sapiens (Human), UniProt Q86Y07)
Outline: as §1

Fyn = Fyn (Homo sapiens (Human), UniProt P06241)
Outline: as §1

Haspin = Haspin (Homo sapiens (Human), UniProt Q8TF76)
Outline: as §1

EphB2 = EphB2 (Homo sapiens (Human), UniProt P29323)
Outline: as §1

mTOR = mTOR (Homo sapiens (Human), UniProt P42345)
Outline: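 Tested at 10 μM across the full kinase panel in duplicate, with ATP concentration near the Km of each kinase. Reported as POC.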

CDK6/cyclinD3 = CDK6/cyclinD3 (Homo sapiens (Human), UniProt Q00534)
Outline: as §1

DYRK2 = DYRK2 (Homo sapiens (Human), UniProt Q92630)
Outline: as §1

PKD1 = PKD1 (Homo sapiens (Human), UniProt Q15139)
Outline: as §1

NEK7 = NEK7 (Homo sapiens (Human), UniProt Q8TDX7)
Outline: as §1

MARK1 = MARK1 (Homo sapiens (Human), UniProt Q9P0L2)
Outline: as §1

MAPKAP-K5 = MAPKAP-K5 (Homo sapiens (Human), UniProt Q8IW41)
Outline: as §1

DCAMKL2 = DCAMKL2 (Homo sapiens (Human), UniProt Q8N568)
Outline: as §1

PRKG1beta = PRKG1beta (Homo sapiens (Human), UniProt Q13976)
Outline: as §1

STK33 = STK33 (Homo sapiens (Human), UniProt Q9BYT3)
Outline: as §1

PASK = PASK (Homo sapiens (Human), UniProt Q96RG2)
Outline: as §1

MARK2 = MARK2 (Homo sapiens (Human), UniProt Q7KZI7)
Outline: as §1

Rsk4 = Rsk4 (Homo sapiens (Human), UniProt Q9UK32)
Outline: as §1

PKCepsilon = PKCepsilon (Homo sapiens (Human), UniProt Q02156)
Outline: as §1

TSSK2 = TSSK2 (Homo sapiens (Human), UniProt Q96PF2)
Outline: as §1

ITK = ITK (Homo sapiens (Human), UniProt Q08881)
Outline: as §1

Fms = Fms (Homo sapiens (Human), UniProt P07333)
Outline: as §1

ZAP-70 = ZAP-70 (Homo sapiens (Human), UniProt P43403)
Outline: as §1

EphA7 = EphA7 (Homo sapiens (Human), UniProt Q15375)
Outline: as §1

PKAC-alpha = PKAC-alpha (Homo sapiens (Human), UniProt P17612)
Outline: as §1

Flt4 = Flt4 (Homo sapiens (Human), UniProt P35916)
Outline: as §1

FAK = FAK (Homo sapiens (Human), UniProt Q05397)
Outline: as §1

mTOR/FKBP12 = mTOR/FKBP12 (Homo sapiens (Human), UniProt P42345)
Outline: as §1

Plk1 = Plk1 (Homo sapiens (Human), UniProt P53350)
Outline: as §1

CAMK1d = CAMK1d (Homo sapiens (Human), UniProt Q8IU85)
Outline: as §1

BLK = tested on: BLK
Outline: as §1

TLK2 = TLK2 (Homo sapiens (Human), UniProt Q86UE8)
Outline: as §1

Lck = Lck (Homo sapiens (Human), UniProt P06239)
Outline: as §1

IRR = IRR (Homo sapiens (Human), UniProt P14616)
Outline: as §1

ULK2 = ULK2 (Homo sapiens (Human), UniProt Q8IYT8)
Outline: as §1

Chain of NEK7 (Q8TDX7 whole entry): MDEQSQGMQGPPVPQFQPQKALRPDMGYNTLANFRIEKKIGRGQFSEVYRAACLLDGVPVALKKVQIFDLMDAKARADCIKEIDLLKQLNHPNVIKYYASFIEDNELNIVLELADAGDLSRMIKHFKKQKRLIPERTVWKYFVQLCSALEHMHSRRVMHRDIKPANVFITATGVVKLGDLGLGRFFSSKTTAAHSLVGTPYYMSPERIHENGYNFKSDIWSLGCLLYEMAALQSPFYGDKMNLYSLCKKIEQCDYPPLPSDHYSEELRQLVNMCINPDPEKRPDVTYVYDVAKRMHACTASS
Chain of CLK2 (P49760 whole entry): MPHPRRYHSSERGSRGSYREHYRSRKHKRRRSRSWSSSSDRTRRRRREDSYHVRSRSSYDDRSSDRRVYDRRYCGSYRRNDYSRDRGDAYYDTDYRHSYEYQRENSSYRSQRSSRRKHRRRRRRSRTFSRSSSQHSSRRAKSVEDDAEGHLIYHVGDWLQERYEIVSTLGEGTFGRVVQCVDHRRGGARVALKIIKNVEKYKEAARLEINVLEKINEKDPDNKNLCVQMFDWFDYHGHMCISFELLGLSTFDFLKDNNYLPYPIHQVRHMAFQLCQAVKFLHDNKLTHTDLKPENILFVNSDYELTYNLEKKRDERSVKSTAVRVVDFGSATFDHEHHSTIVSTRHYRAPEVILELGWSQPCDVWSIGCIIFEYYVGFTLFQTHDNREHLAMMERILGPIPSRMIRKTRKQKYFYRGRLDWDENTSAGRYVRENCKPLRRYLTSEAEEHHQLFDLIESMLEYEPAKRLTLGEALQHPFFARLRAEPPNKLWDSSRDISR
Chain of IR Activated (P06213 1005-1310 limits assumed): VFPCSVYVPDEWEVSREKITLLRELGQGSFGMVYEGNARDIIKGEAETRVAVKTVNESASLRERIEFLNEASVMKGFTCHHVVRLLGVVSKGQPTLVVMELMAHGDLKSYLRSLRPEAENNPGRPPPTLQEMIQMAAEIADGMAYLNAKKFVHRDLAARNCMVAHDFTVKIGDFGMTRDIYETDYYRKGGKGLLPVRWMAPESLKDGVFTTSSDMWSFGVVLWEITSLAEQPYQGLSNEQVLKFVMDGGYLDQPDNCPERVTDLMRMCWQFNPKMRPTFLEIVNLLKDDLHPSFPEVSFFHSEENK
Chain of ROCK-I (Q13464 whole entry): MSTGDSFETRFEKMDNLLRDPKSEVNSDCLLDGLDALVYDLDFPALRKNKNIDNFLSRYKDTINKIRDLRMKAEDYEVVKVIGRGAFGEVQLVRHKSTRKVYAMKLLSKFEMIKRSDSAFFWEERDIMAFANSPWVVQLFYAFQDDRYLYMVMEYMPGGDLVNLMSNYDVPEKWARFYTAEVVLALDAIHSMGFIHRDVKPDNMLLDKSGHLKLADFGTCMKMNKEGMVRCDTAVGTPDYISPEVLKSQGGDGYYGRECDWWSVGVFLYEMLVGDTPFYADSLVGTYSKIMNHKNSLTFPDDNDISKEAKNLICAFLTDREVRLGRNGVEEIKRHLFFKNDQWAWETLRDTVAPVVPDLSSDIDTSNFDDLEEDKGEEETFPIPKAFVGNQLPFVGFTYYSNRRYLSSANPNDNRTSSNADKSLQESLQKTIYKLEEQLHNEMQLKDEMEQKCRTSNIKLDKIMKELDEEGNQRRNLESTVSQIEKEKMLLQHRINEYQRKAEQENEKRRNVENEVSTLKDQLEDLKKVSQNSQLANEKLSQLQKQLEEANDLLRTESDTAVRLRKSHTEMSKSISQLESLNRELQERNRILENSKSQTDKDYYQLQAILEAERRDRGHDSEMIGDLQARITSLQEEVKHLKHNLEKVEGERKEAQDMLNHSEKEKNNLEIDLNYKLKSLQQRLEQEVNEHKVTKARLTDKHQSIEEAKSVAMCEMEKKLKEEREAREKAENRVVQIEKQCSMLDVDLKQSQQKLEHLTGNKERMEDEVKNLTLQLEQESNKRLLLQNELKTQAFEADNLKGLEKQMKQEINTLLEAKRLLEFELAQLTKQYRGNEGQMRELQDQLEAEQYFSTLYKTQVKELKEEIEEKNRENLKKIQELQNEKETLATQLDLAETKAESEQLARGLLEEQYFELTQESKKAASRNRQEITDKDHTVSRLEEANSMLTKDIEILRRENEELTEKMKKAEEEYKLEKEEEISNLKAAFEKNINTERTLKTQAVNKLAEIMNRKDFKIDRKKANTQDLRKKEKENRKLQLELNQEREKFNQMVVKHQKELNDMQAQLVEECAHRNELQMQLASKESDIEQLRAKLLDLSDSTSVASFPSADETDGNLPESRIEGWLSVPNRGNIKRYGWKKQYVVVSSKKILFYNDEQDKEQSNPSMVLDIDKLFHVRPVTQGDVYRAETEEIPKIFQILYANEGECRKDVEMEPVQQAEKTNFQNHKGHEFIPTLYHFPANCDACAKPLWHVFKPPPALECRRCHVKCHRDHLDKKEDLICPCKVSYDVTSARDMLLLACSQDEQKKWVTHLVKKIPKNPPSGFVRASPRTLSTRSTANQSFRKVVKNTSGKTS
Chain of PRKG1beta (Q13976 other isoform, or with tags, fused parts or gaps): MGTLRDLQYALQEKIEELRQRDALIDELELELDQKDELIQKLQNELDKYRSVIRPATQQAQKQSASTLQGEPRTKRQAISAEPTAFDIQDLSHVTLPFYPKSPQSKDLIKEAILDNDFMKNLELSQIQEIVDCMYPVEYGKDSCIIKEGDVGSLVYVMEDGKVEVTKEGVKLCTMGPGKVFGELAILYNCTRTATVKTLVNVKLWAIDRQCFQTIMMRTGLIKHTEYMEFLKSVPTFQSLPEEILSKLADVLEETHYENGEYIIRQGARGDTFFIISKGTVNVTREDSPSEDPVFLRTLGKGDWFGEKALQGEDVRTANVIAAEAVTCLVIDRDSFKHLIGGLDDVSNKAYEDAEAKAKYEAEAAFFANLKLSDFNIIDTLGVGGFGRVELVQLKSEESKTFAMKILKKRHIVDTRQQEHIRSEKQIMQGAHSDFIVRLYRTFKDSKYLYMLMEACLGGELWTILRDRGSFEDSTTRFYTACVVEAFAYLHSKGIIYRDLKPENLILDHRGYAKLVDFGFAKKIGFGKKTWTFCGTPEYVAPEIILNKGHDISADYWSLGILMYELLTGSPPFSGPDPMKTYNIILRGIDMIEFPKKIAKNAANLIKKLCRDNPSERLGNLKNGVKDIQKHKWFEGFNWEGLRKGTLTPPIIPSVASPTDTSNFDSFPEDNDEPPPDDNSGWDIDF
Chain of DCAMKL2 (Q8N568 whole entry): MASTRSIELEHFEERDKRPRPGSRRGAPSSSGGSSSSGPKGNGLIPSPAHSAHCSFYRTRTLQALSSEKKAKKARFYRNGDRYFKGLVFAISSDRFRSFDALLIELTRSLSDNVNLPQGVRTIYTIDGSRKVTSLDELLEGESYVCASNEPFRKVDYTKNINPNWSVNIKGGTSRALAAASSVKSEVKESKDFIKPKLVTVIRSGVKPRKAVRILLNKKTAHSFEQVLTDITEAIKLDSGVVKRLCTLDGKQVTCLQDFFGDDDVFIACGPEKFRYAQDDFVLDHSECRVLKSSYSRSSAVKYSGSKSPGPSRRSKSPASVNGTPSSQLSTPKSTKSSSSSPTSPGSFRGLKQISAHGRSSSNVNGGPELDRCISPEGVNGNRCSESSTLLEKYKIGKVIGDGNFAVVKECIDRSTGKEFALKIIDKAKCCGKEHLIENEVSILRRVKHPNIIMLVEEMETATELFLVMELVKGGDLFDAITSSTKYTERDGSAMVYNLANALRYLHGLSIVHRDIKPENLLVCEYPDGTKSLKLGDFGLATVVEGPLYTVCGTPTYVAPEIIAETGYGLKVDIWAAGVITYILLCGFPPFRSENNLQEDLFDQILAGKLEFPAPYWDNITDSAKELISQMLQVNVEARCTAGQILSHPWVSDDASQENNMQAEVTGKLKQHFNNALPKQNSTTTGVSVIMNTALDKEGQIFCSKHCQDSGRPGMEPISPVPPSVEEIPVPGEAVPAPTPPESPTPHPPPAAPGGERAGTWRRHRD
Chain of EphB2 (P29323 19-1055): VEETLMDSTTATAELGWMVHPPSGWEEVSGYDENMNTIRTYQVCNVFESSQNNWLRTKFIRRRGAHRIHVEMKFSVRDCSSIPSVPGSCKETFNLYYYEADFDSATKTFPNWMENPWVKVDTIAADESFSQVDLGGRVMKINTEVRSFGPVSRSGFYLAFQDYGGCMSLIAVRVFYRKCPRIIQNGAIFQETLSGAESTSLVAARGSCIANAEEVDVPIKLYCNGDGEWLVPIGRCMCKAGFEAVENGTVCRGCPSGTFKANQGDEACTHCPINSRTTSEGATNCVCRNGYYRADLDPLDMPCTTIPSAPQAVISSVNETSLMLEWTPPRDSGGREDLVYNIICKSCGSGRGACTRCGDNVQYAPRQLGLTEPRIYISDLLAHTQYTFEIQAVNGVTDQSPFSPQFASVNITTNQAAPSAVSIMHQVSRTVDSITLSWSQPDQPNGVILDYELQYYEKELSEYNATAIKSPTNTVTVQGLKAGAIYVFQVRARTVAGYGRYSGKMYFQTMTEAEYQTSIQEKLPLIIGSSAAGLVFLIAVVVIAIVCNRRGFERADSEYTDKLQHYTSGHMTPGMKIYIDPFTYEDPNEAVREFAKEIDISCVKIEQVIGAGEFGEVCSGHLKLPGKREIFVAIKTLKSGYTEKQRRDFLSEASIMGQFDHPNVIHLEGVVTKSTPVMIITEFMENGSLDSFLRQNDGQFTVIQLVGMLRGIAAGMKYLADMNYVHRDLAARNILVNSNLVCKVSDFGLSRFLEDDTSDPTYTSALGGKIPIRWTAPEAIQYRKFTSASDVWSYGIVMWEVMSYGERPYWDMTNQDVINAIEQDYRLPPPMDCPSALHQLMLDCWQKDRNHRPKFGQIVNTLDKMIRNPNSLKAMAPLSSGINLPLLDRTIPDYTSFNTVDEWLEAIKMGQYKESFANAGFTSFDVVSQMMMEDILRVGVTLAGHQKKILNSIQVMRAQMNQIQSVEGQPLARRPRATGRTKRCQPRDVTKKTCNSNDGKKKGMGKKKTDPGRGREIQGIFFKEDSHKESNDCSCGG

| Compound | Avg POC (ROCK-I) [POC] | Avg POC (CLK2) [POC] | Avg POC (MST3) [POC] | Avg POC (IR Activated) [POC] | Avg POC (VRK2) [POC] | Avg POC (Fyn) [POC] | Avg POC (Haspin) [POC] | Avg POC (EphB2) [POC] | Avg POC (mTOR) [POC] | Avg POC (CDK6/cyclinD3) [POC] | Avg POC (DYRK2) [POC] | Avg POC (PKD1) [POC] | Avg POC (NEK7) [POC] | Avg POC (MARK1) [POC] | Avg POC (MAPKAP-K5) [POC] | Avg POC (DCAMKL2) [POC] | Avg POC (PRKG1beta) [POC] | Avg POC (STK33) [POC] | Avg POC (PASK) [POC] | Avg POC (MARK2) [POC] | also measured |
| --- | --- | --- | --- | --- | --- | --- | --- | --- | --- | --- | --- | --- | --- | --- | --- | --- | --- | --- | --- | --- | --- |
| COCCN1C[C@@H](NC(=O)Nc2c(C)c(-c3ccnc(C)c3)nn2-c2ccccc2)[C@H](c2ccc(F)c(F)c2)C1 [Example 2, 1-((3S,4R)-4-(3,4-difluorophenyl)-1-(2-methoxyethyl)pyrrolidin-3-yl)-3-(4-methyl-3-(2-methylpyridin-4-yl)-1-phenyl-1H-pyrazol-5-yl)urea] | 98 | 125 | 101 | 106.5 | 101.5 | 97 | 71.5 | 109.5 | 108.5 | 96 | 90.5 | 96 | 117 | 97.5 | 100 | 105 | 97.5 | 94 | 102.5 | 90 | Avg POC (Rsk4): 136.5 POC; Avg POC (PKCepsilon): 103.5 POC; Avg POC (TSSK2): 107 POC; Avg POC (ITK): 111 POC; Avg POC (Fms): 101.5 POC; Avg POC (ZAP-70): 93 POC; Avg POC (EphA7): 101.5 POC; Avg POC (PKAC-alpha): 94.5 POC; Avg POC (Flt4): 95 POC; Avg POC (FAK): 111.5 POC; Avg POC (mTOR/FKBP12): 108.5 POC; Avg POC (Plk1): 100 POC; Avg POC (CAMK1d): 100 POC; Avg POC (BLK): 92 POC; Avg POC (TLK2): 92.5 POC; Avg POC (Lck): 113 POC; Avg POC (IRR): 105 POC; Avg POC (ULK2): 96.5 POC |
| COCCN1C[C@@H](NC(=O)Nc2c(C)c(-c3cnc(C)nc3)nn2-c2ccccc2)[C@H](c2cc(F)cc(F)c2)C1 [Example 14, 1-((3S,4R)-4-(3,5-difluorophenyl)-1-(2-methoxyethyl)pyrrolidin-3-yl)-3-(4-methyl-3-(2-methylpyrimidin-5-yl)-1-phenyl-1H-pyrazol-5-yl)urea] | 109.5 | 111.5 | 105.5 | 100.5 | 109.5 | 91.5 | 96 | 120 | 102.5 | 99.5 | 85 | 97 | 106.5 | 98 | 123.5 | 114.5 | 101.5 | 103.5 | 100.5 | 99.5 | Avg POC (Rsk4): 113.5 POC; Avg POC (PKCepsilon): 114.5 POC; Avg POC (TSSK2): 107.5 POC; Avg POC (ITK): 101 POC; Avg POC (Fms): 76 POC; Avg POC (ZAP-70): 101 POC; Avg POC (EphA7): 106.5 POC; Avg POC (PKAC-alpha): 109 POC; Avg POC (Flt4): 92.5 POC; Avg POC (FAK): 98.5 POC; Avg POC (mTOR/FKBP12): 113 POC; Avg POC (Plk1): 113 POC; Avg POC (CAMK1d): 103.5 POC; Avg POC (BLK): 91.5 POC; Avg POC (TLK2): 93.5 POC; Avg POC (Lck): 112.5 POC; Avg POC (IRR): 96 POC; Avg POC (ULK2): 106.5 POC |
